The results in this text go back to patent US9370183B2, “Use of ALS inhibitor herbicides for control of unwanted vegetation in ALS inhibitor herbicide tolerant Brassica, such as B. napus, plants” (Bayer Intellectual Property GmbH, priority 2011, dated 2016).

In one test the test system is B. napus mutant FM 202. Type of test: in vivo, Brassica napus. To be noted: spray at BBCH 12-13 with Mero 1 l/ha, visual scoring 14 days after application, 0%=no damage, 100%=all plants dead. The procedure: (§1) The individual components herbicide and surfactant with regard to type and application rate as stated in table 1 were added with stirring to a water application rate of 300 l/ha so that a homogeneous spray mixture was formed. The adjuvant Mero® (Bayer CropScience AG: active ingredient is 81% rapeseed oil methyl ester) was always added to the spray liquids with a use rate of one l/ha.
(§2) Seeds of B. napus were sown in a sandy loam soil and placed in a climate chamber in a greenhouse under good growth conditions (16 h light, temperature day 14° C., night: 8° C.). The plants (10 per experiment) were grown up to growth stage of BBCH 12 to BBCH 13. […] After the treatment, the plants were returned to the climate chamber.
(§3) Visual scoring was carried out using a percentage scale of 0%=no damage to 100%=all plants dead.

Test [1] relates to B. napus wild type variety SR002201. As to the kind of experiment: Greenhouse herbicide injury, visual scoring, wild type variety. Type of test: in vivo, Brassica napus. Conditions: spray at BBCH 12-13 with Mero 1 l/ha, visual scoring 14 days after application, 0%=no damage, 100%=all plants dead. The procedure:
as §1, §2, §3

In test [2] the target is T1, A. thaliana A205V-mutant ALS (Arabidopsis thaliana, UniProt P17597, A205V/E575Q).
T1 construct: vector-encoded fusion of pET-32a(+) (Trx/His/S-tag by own knowledge of the vector); made in house; host or cells: Escherichia coli AD494
T1 sequence (P17597 56-670 A205V/E575Q): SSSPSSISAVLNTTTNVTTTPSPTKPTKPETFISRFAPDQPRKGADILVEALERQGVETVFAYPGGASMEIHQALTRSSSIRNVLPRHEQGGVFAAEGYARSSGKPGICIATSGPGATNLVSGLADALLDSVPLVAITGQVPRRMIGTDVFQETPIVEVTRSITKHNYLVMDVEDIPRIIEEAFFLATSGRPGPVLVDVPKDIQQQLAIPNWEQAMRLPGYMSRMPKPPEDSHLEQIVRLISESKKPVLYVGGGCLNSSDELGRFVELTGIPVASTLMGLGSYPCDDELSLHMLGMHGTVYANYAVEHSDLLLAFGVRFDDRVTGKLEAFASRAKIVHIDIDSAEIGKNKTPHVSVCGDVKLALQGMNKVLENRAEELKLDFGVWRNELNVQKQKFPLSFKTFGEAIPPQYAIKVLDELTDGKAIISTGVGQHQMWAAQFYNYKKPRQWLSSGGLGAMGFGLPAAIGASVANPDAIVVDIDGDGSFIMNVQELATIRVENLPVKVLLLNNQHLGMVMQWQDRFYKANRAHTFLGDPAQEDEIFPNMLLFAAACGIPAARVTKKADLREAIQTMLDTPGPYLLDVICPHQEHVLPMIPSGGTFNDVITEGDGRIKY
As to the kind of experiment: biochemical. To be noted: negative logarithm of the molar concentration inhibiting the enzyme activity by 50%, crude extract of E. coli expressing A. thaliana A205V ALS, 75 min, 30° C.; for IC50: read-out: ALS PI50 A205V (converted). The protocol: (§4) Bacteria were grown at 37° C. in LB-medium containing 100 mg/l carbenicillin and 25 mg/l canamycin, induced with 1 mM isopropyl-β-D-thiogalactopyranoside at an OD600 of 0.6, cultivated for 16 hours at 18° C. and harvested by centrifugation. Bacterial pellets were resuspended in 100 mM sodium phosphate buffer pH 7.0 containing 0.1 mM thiamine-pyrophosphate, 1 mM MgCl2, and 1 μM FAD at a concentration of 1 gram wet weight per 25 ml of buffer and disrupted by sonification. The crude protein extract obtained after centrifugation was used for ALS activity measurements.
(§5) Assays were initiated by adding enzyme and terminated after 75 min incubation at 30° C. by the addition of 40 μl 0.5 M H2SO4.

Test [3] deals with T2, A. thaliana S653N-mutant ALS (Arabidopsis thaliana, UniProt P17597, E575Q/S653N).
T2 construct: vector-encoded fusion of pET-32a(+) (Trx/His/S-tag by own knowledge of the vector); made in house; host or cells: Escherichia coli AD494
T2 sequence (P17597 56-670 E575Q/S653N): as the sequence (P17597 56-670 A205V/E575Q) above, with V150A, S598N counted along it
Nature of the test: biochemical. Conditions: negative logarithm of the molar concentration inhibiting the enzyme activity by 50%, crude extract of E. coli expressing A. thaliana S653N ALS, 75 min, 30° C.; for IC50: read-out: ALS PI50 S653N (converted). The procedure: as §4, §5

Test [4] addresses T3, A. thaliana wild-type ALS (Arabidopsis thaliana, UniProt P17597, E575Q).
T3 construct: vector-encoded fusion of pET-32a(+) (Trx/His/S-tag by own knowledge of the vector); made in house; host or cells: Escherichia coli AD494
As to the kind of experiment: biochemical. Conditions: negative logarithm of the molar concentration inhibiting the enzyme activity by 50%, crude extract of E. coli expressing A. thaliana wild-type ALS, 75 min, 30° C.; for IC50: read-out: ALS PI50 WT (converted). The procedure:
as §4, §5

Test [5] concerns the target T4, A. thaliana W574L-mutant ALS (Arabidopsis thaliana, UniProt P17597, E575Q/W574L).
T4 construct: vector-encoded fusion of pET-32a(+) (Trx/His/S-tag by own knowledge of the vector); made in house; host or cells: Escherichia coli AD494
Type of test: biochemical. Conditions: negative logarithm of the molar concentration inhibiting the enzyme activity by 50%; crude extract of E. coli expressing A. thaliana W574L ALS; 75 min, 30° C. The procedure: as §4, §5

Read-outs that look alike come from different tables or passages of the source.

T3 sequence (P17597 56-670 E575Q): as the sequence (P17597 56-670 A205V/E575Q) above, with V150A counted along it
T4 sequence (P17597 56-670 W574L/E575Q): as the sequence (P17597 56-670 A205V/E575Q) above, with V150A, W519L counted along it

`COC(=O)c1csc(C)c1S(=O)(=O)NC(=O)n1nc(OC)n(C)c1=O` [Thiencarbazone-methyl, thiencarbazone-methyl]: the “Herbicide injury on BRSNS [%] FM 202” value in the test with B. napus mutant FM 202 (20 g a.i./ha) came out at 0%. Besides, the “Herbicide injury on BRSNS [%] SR002201” value in test [1] (20 g a.i./ha) is 90%.

In the case of `COc1cc(OC)n2nc(S(=O)(=O)Nc3c(Cl)ccc(C)c3Cl)nc2n1` [Metosulam, metosulam], the IC50 in test [2] was 0.794 µM; in test [3] it was 0.0398 µM; in test [4], 0.00316 µM.

Take `COc1cc(OC)nc(NC(=O)NS(=O)(=O)N(C)S(C)(=O)=O)n1` [Amidosulfuron, amidosulfuron]: the IC50 in test [2] is 12.6 µM; in test [3], 0.00126 µM.

In the case of `COc1cc(OC)nc(NC(=O)NS(=O)(=O)c2cc(NC=O)ccc2C(=O)N(C)C)n1` [Foramsulfuron, foramsulfuron], the IC50 in test [2] was 0.501 µM.

For `CCOc1ccccc1OS(=O)(=O)NC(=O)Nc1nc(OC)cc(OC)n1` [Ethoxysulfuron, ethoxysulfuron], the “Herbicide injury on BRSNS [%] FM 202” value in the test on B. napus mutant FM 202 (60 g a.i./ha) worked out at 0%. Also, the “Herbicide injury on BRSNS [%] SR002201” value in test [1] (60 g a.i./ha) amounted to 98%.

As for `CCS(=O)(=O)c1cccnc1S(=O)(=O)NC(=O)Nc1nc(OC)cc(OC)n1` [Rimsulfuron, rimsulfuron], the IC50 in test [2] was 0.158 µM; in test [3] it was 0.00251 µM; in test [4] it was 0.01 µM.

With `COC(=O)c1ccc(CNS(C)(=O)=O)cc1S(=O)(=O)NC(=O)Nc1nc(OC)cc(OC)n1` [Mesosulfuron-methyl, mesosulfuron-methyl], in the test with B. napus mutant FM 202 (15 g a.i./ha), the “Herbicide injury on BRSNS [%] FM 202” value was 0%. In test [1] (15 g a.i./ha), the “Herbicide injury on BRSNS [%] SR002201” value was 90%.

As to `COC(=O)c1sccc1S(=O)(=O)NC(=O)Nc1nc(C)nc(OC)n1` [Thifensulfuron-Methyl, thifensulfuron-methyl], the IC50 in test [2] is 0.631 µM; in test [3], 0.158 µM; in test [4] it was 0.0316 µM.

`COCc1cnc(C2=NC(C)(C(C)C)C(=O)N2)c(C(=O)O)c1` (stereo not shown) [Imazamox, imazamox]: the IC50 in test [2] was over 100 µM. In the test with B. napus mutant FM 202 (40 g a.i./ha), the “Herbicide injury on BRSNS [%] FM 202” value is 0%. Further, in test [1] (40 g a.i./ha), the “Herbicide injury on BRSNS [%] SR002201” value is reported as 93%.

As for `COC(=O)c1ccccc1S(=O)(=O)NC(=O)N(C)c1nc(C)nc(OC)n1`, the “Herbicide injury on BRSNS [%] FM 202” value in the test on B. napus mutant FM 202 (30 g a.i./ha) was 3%. For the same molecule, in test [1] (30 g a.i./ha), the “Herbicide injury on BRSNS [%] SR002201” value stood at 95%.

For `COc1cc(OC)nc(Oc2cccc(Oc3nc(OC)cc(OC)n3)c2C(=O)O)n1` [Bispyribac-sodium, bispyribac-sodium], the values for the IC50 in test [2], in test [3] and in test [4] were 0.1 µM, 0.158 µM and 0.0158 µM, respectively.

In the case of `COC(=O)c1ccc(I)cc1S(=O)(=O)[N-]C(=O)Nc1nc(C)nc(OC)n1.[Na+]` [Iodosulfuron-methy-sodium, iodosulfuron-methyl-sodium], in the test with B. napus mutant FM 202 (7 g a.i./ha), the “Herbicide injury on BRSNS [%] FM 202” value worked out at 0%. Also, the “Herbicide injury on BRSNS [%] SR002201” value in test [1] (7 g a.i./ha) is 95%.

For `CCS(=O)(=O)c1nc2ccccn2c1S(=O)(=O)NC(=O)Nc1nc(OC)cc(OC)n1` [Sulfosulfuron, sulfosulfuron], the IC50 is 1.26 µM in test [2], 0.0794 µM in test [3] and 0.0158 µM in test [4].

For the molecule `COc1cc(OC)nc(NC(=O)NS(=O)(=O)c2ncccc2C(F)(F)F)n1` [Flazasulfuron, flazasulfuron], the IC50 in test [2] was 0.0158 µM; in test [4], 0.00251 µM.

With `COC(=O)c1ccccc1S(=O)(=O)NC(=O)Nc1nc(C)nc(OC)n1` [Metsulfuron-methyl, metsulfuron-methyl], in the test on B. napus mutant FM 202 (8 g a.i./ha), the “Herbicide injury on BRSNS [%] FM 202” value is recorded as 0%. In test [1] (8 g a.i./ha), the “Herbicide injury on BRSNS [%] SR002201” value came to 93%.

As for `COc1nc(C)nc(NC(=O)NS(=O)(=O)c2ccccc2Cl)n1` [Chlorsulfuron, chlorsulfuron], the “Herbicide injury on BRSNS [%] FM 202” value in the test on B. napus mutant FM 202 (9 g a.i./ha) was 0%. Also, the “Herbicide injury on BRSNS [%] SR002201” value in test [1] (9 g a.i./ha) stood at 97%.

Take `COc1cc(OC)nc(NC(=O)NS(=O)(=O)c2ncccc2C(=O)N(C)C)n1` [Nicosulfuron, nicosulfuron]: the IC50 in test [2] was 1 µM; in test [3], 1.58 µM; in test [4], 0.0631 µM.

In the case of `COc1ncc(F)c2nc(S(=O)(=O)Nc3c(F)cccc3F)nn12` [Florasulam, florasulam], the “ALS PI50 W574L” value in test [5] is reported as 4.6. The “ALS PI50 A205V” value in test [2] stood at 6.1. In addition, the “ALS PI50 S653N” value in test [3] was found to be 7.6. Further, in test [4], the “ALS PI50 WT” value worked out at 7.9.

In the case of `COC(=O)c1cccc(C)c1S(=O)(=O)NC(=O)Nc1nc(OCC(F)(F)F)nc(N(C)C)n1` [Triflusulfuron, triflusulfuron-methyl], in the test on B. napus mutant FM 202 (20 g a.i./ha), the “Herbicide injury on BRSNS [%] FM 202” value is on record as 0%. In test [1] (20 g a.i./ha), the “Herbicide injury on BRSNS [%] SR002201” value stood at 65%.
